The subject of test [1] is BALB/c mice. In words: OVA-induced AHR in BALB/c mice treated with autophagy inducers or inhibitor (whole body plethysmography, PenH). It is filed as in vivo. Particulars: i.p., DCMI 1 mg/kg, tamoxifen 100 μM, clonidine 0.1 mg/kg, carbamazepine 20 mg/kg, compared to OVA controls. The procedure:
FIGS. 3A to 3E illustrate altered development of AHR and lung inflammation in BALB/c mice treated with autophagy inducers and inhibitor. FIG. 3A is a schematic for the sensitization and challenge protocol with administration of autophagy inhibitors and inducers via i.p. injection. FIGS. 3B and C show AHR was determined by whole body plethysmography and is expressed as mean PenH in the presence or absence of (FIG. 3B) autophagy inhibitor desmethylclomipramine (“DCMI”) 1 mg/kg or (FIG. 3C) autophagy inducers tamoxifen 100 μM, clonidine 0.1 mg/kg or carbamazepine 20 mg/kg. FIGS. 3D and E are a quantitative determination of cellular infiltration into BAL was determined by cytospin preparation in the presence or absence of (FIG. 3D) autophagy inhibitor and (FIG. 3E) autophagy inducers. Representative data from two independent experiments with 3 mice per group, expressed as mean±SEM. PBS refer to naïve BALB/c animals. Figure legend: Total: Total of number of cells in the BAL, PMN: polymorphonuclear cells, EOS: Eosinophils, MACRO: Macrophages, Lymph: Lymphocytes
Autophagy inducers (Carbamazepin, Tamoxifen, and Clonidine) and inhibitors (DCMI) were administered on days 10 to 13 (FIG. 9A). […] This was the opposite when treated with the autophagy inducers (Carbamazepin, Tamoxifen, and Clonidine) (FIG. 9C). Therefore, autophagy is an important mediator in AHR.
There are many reported small molecule inducers and inhibitors of autophagy (Balgi et al. (2009) PLoS One 4:e7124; Mizushima et al. (2006) Autophagy 2:302-304; Vooijs et al. (2001) EMBO Rep 2:292-297; Fujita et al. (2008) Mol Biol Cell 19:2092-2100; Kuma et al. (2004) Nature 432:1032-1036; Inoue et al. (2011) Biochem Biophys Res Commun 405:13-18). In preliminary studies, Applicant has used a range of different inducers (tamoxifen (Akbari et al. (2001) Nat Immunol 2:725-731), clonidine (Mizushima et al. (2006) Autophagy 2:302-304) and carbamazepine (Renna et al. (2010) J Biol Chem 285:11061-11067)) and one inhibitor (desmethylclomipramine (“DCMI”) (Balgi et al. (2009) PLoS One 4:e7124)). A standard sensitization and challenge protocol was used for the induction of AHR in BALB/c (FIG. 3A). […] This is in agreement with Applicant's findings using the Atg5Δ animals that inhibition of autophagy has a deleterious effect on lung function. When autophagy is induced (with tamoxifen, clonidine or carbamazepine) AHR after sensitization and challenge with OVA is reduced compared to controls (FIG. 3C). […] When autophagy is inhibited total cell numbers in the BAL are increased (FIG. 3D) in contrast, in the presence of autophagy inducers total cell numbers and in particular eosinophils are reduced (FIG. 3E).

For test [2], the system named is BALB/c mice. The test is described as follows: Chronic OVA-induced AHR (PenH). It is filed as in vivo. As to conditions: TAT as irrelevant peptide control. The procedure:
BALB/c mice were treated with OVA to induce chronic AHR and administered a4-TAT-vFLIP (as autophagy inducer) and TAT (as irrelevant peptide, control). AHR was assessed by Pen H (enhanced pause).

Test [3] relates to BALB/c mice. The test is described as follows: Lung histology (hematoxylin and eosin), OVA model. Type of test: in vivo. As to conditions: OVA+vFLIP compared to OVA alone. The text has this:
(§1) Thereafter, lung sections were stained with hematoxylin and eosin (HE) from the different groups in the HDM and OVA models. Airway inflammation and remodeling were decreased in the HDM/OVA+vFLIP compared to OVA/HDM alone based on smooth muscle hyperplasia, epithelial cell proliferation, subepithelial fibrosis and basement membrane thickening.

Test [4] has as its system BALB/c mice. The test is described as follows: Lung histology (hematoxylin and eosin), HDM model. Type of test: in vivo. As to conditions: HDM+vFLIP compared to HDM alone.
Description: as §1

Test [5] deals with BALB/c mice. In words: Acute HDM-induced AHR (PenH, methacholine challenge), a4-vFLIP peptide. Type of test: in vivo. As to conditions: acute HDM model, 300 μg i.p. days 13 to 15, compared to HDM+TAT pep, P<0.003. The procedure: FIG. 9D illustrates a protocol to induce acute AHR by HDM. On day 1, naïve BALB/c mice (N=5 per group) received an intranasal (i.n.) injection with house dust mite (HDM) ([…]). After resting for 6 days, mice were treated intranasally (i.n.) with HDM ([…]) from days 7 to 14 and i.p. with the autophagy inducer a4-TAT-vFLIP (300 μg) on days 13 to 15. On day 16, the enhanced pause (PenH) variable was measured to determine airway hyperreactivity (AHR).
Increasing doses of methacholine, a muscarinic receptor agonist to induce AHR, was administered to the different treatment groups of mice and the PenH was determined. […] Ctrl group (dark triangles) after methacholine challenge. […] Therefore, the autophagy peptide inducer was able to reduce AHR after HDM challenge.

In test [6] the test system is BALB/c mice. The test is described as follows: Acute OVA-induced AHR (PenH, methacholine challenge), a4-vFLIP peptide. Type of test: in vivo. As to conditions: acute OVA model, 300 μg i.p. days 11 to 13, compared to OVA+TAT pep, P<0.003. On the procedure: Briefly on day 1, naïve BALB/c mice (N=5 per group) received an intraperitoneal (i.p.) injection with ovalbumin (OVA) ([…]) in Alum (2 mg). After resting for 10 days, mice were treated intranasally (i.n.) with OVA (50 μg) and i.p. with the autophagy inducer α4-TAT-vFLIP ([…]) on days 11 to 13. On day 14, the enhanced pause (PenH) variable was measured to determine airway hyperreactivity (AHR).
Briefly, administration of alpha4-TAT-vFLIP (a.k.a. a4-vFLIP) peptide restores lung function in an acute model of OVA induced asthma. Increasing doses of methacholine, a muscarinic receptor agonist to induce AHR, was administered to the different treatment groups of mice and the PenH was determined. […] Ctrl group (dark triangles) after methacholine challenge. […] Therefore, the autophagy peptide inducer a4-vFLIP was able to reduce AHR after OVA challenge.

Test [7] relates to moderate to severe patients with asthma. As to conditions: clinical trial; cited from earlier work.
Test [8] has as its system BALB/c mice. The test is described as follows: Cellular infiltration into BAL by cytospin preparation, OVA model. Particulars: OVA sensitized and challenged BALB/c, i.p. treatment. Type of test: in vivo. The procedure:
FIGS. 3A to 3E illustrate altered development of AHR and lung inflammation in BALB/c mice treated with autophagy inducers and inhibitor. FIG. 3A is a schematic for the sensitization and challenge protocol with administration of autophagy inhibitors and inducers via i.p. injection. FIGS. 3B and C show AHR was determined by whole body plethysmography and is expressed as mean PenH in the presence or absence of (FIG. 3B) autophagy inhibitor desmethylclomipramine (“DCMI”) 1 mg/kg or (FIG. 3C) autophagy inducers tamoxifen 100 μM, clonidine 0.1 mg/kg or carbamazepine 20 mg/kg. FIGS. 3D and E are a quantitative determination of cellular infiltration into BAL was determined by cytospin preparation in the presence or absence of (FIG. 3D) autophagy inhibitor and (FIG. 3E) autophagy inducers. Representative data from two independent experiments with 3 mice per group, expressed as mean±SEM. PBS refer to naïve BALB/c animals. Figure legend: Total: Total of number of cells in the BAL, PMN: polymorphonuclear cells, EOS: Eosinophils, MACRO: Macrophages, Lymph: Lymphocytes […]

Entries after “also recorded” stand apart in the source; their conditions may differ.

Regarding `Clc1cccc(Cl)c1N=C1NCCN1` [clonidine], the results for the “AHR (mean PenH) after sensitization and challenge with OVA” value (“AHR (mean PenH)” below) in test [1] and in test [1] (listed as Clonidine) were “reduced” and “opposite”, respectively.
On to “RRRQRRKKRGY-G-LMNSFVCLIVSS (RRRQRRKKRGYGLMNSFVCLIVSS) [a4-vFLIP, autophagy peptide inducer, 24aa TAT-fused α4 vFLIP peptide]”, for which the “chronic AHR (PenH)” value in test [2] is on record as “decreased levels of AHR”. For the same compound, the “Airway inflammation and remodeling (smooth muscle hyperplasia, epithelial cell proliferation, subepithelial fibrosis, basement membrane thickening)” value in test [3] and in test [4] was “decreased” in each case. The “AHR (PenH) after methacholine challenge” value in test [5] and in test [6] was “statistically significant reduction” each time.
As for `CC/C(=C(\c1ccccc1)c1ccc(OCCN(C)C)cc1)c1ccccc1` [tamoxifen], the “AHR (mean PenH)” value in test [1] is given as “reduced”; in test [1] (listed as Tamoxifen), “opposite”.
As for `NC(=O)N1c2ccccc2C=Cc2ccccc21` [carbamazepine], in test [7], the “efficacy for the treatment of asthma” value is listed as “improve asthma; also recorded: high efficacy”. The “AHR (mean PenH)” value in test [1] is “reduced”; in test [1] (listed as Carbamazepin) it was “opposite”.
For the compound `CNCCCN1c2ccccc2CCc2ccc(Cl)cc21` [DCMI, desmethylclomipramine], in test [8], the “total cell numbers in the BAL” value is listed as “increased”. In addition, the “AHR (mean PenH)” value in test [1] is on record as “greatly increased; also recorded: significant increase”.
